Measured values: patent US11203610B2, “2′3′ cyclic dinucleotides with phosphonate bond activating the sting adaptor protein” (INSTITUTE OF ORGANIC CHEMISTRY AND BIOCHEMISTRY ASCR, V.V.I., priority 2017, dated 2021)

Key:
[1] = target: T1, WT STING (Homo sapiens, UniProt Q86WV6, H232R); assay: Digitonin assay using 293T wtSTING-FL reporter cells; type: cell-based; settings: 293T wtSTING-FL cells; 30 minutes in Digitonin buffer, then 5 hours; ISRE firefly luciferase reporter; 8-point dose-response curve; read-out: Digitonin assay EC50 (μmol · l^−1) WT STING
Source text: ISRE Reporter Plasmid (pGL64.27-4xISRE)
Two complementary oligonucleotides of the sequence […] […] […] […] […] The oligonucleotides were mixed in equal molar amounts, hybridized, and cleaved by restriction endonucleases HindIII (cat. #. R0104S, NEB, Ipswich, USA) and BglII (cat. #R0144S, NEB, Ipswich, USA). Ultimately, they were ligated into plasmid pGL4.27 (cat. #E6651, Promega, Madison, USA) linearized with the same enzymes. As result the sequence with four ISRE sites was placed upstream of the minimum promoter of firefly luciferase reporter gene.
After 5 minutes incubation at room temperature (RT), 250 μL of the mixture was added dropwise to the cells in one well. Cells were incubated 36 hours at 37° C. with 5% CO2, and then detached with 0.05% Trypsin and 0.22 g/L EDTA (both cat. #L0941, Biowest, Riverside, USA).
Transfected cells were seeded onto poly-D-lysine coated six well plates at density 50,000 cells per 1 cm^2 in DMEM medium with high glucose containing 10% heat inactivated FBS, 30 g/mL blasticidin (cat. #ant-bl-05, InvivoGen, San Diego, USA), 0.06 mg/ml Penicillin G and 0.1 mg/ml Streptomycin Sulfate (both cat. #. L0018, Biowest, Riverside, USA). The medium was replenished every 3-4 days until visible colonies of cells resistant to blasticidin were formed.
Blasticidin resistant cells stably expressing WT STING were further transfected with […] plasmid following the same procedure as described above. […] Homogeneous culture of stably double transfected cells was prepared by limiting dilution of cells in 96 well plates and wells with cells were selected that originated from a single cell.
The medium was removed next day and three fold serial dilutions of compounds in Digitonin buffer containing 50 mmol·l^−1 HEPES (cat. #H3375, Sigma Aldrich, Czech Republic) pH 7.0, 100 mmol·l^−1 KCl, 3 mmol·l^−1 MgCl2, 0.1 mmol·l^−1 DTT (cat. #D0632, Sigma Aldrich, Czech Republic), 85 mmol·l^−1 Sucrose (cat. #S7903, Sigma Aldrich, Czech Republic), 0.2% BSA (cat. #A2153, Sigma Aldrich, Czech Republic), 1 mmol·l^−1 ATP (cat. #A1852, Sigma Aldrich, Czech Republic), 0.1 mmol·l^−1 GTP (cat. #G8877, Sigma Aldrich, Czech Republic), and 10 μg/mL Digitonin A (cat. #D141, Sigma Aldrich, Czech Republic) were added to the cells. The buffer was removed after 30 minutes incubation at 37° C. with 5% CO2, the cells were washed once with 100 μl of cultivation medium, and 100 μl of medium was added to each well. The plates with cells were incubated for 5 hours at 37° C. with 5% CO2, 50 μl of the medium was removed and 30 μl of ONE-Glo™ Luciferase Assay System reagent (cat. #E6120, Promega, Madison, USA) was added to each well. Luminescence was read on Synergy H1 (Biotek, Winooski, USA).
Target sequence in this assay (Q86WV6 whole entry H232R): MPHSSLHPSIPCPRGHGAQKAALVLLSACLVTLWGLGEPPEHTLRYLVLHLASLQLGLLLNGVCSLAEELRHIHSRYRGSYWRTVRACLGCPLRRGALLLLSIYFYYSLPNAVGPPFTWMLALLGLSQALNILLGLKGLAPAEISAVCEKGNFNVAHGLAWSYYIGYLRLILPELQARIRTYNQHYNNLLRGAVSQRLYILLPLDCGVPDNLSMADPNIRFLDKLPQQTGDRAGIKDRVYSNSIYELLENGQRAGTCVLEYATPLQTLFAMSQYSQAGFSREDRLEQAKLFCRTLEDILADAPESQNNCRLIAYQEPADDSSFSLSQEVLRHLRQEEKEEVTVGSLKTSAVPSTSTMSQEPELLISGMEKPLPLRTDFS

[2] = target: T1, WT STING; assay: Differential Scanning Fluorimetry with WT STING; type: binding; set-up: truncated human WT STING or AQ STING (amino acid residues 140-343); 8xHis (N, cleaved yes); SUMO (N, cleaved yes); made in house; host or cells: E. coli Rosetta-gami B (DE3); settings: thermal shift vs STING apoprotein, 150 μM CDN, 0.1 mg/ml truncated human WT STING, SYPRO Orange; for ΔTm at 150 µM: read-out: DSF ΔTm (° C.) WT STING
Description: (§1) WT STING and AQ STING Proteins
(§2) Purified PCR products were cleaved with restriction enzymes BamHI (cat. #R0136S, NEB, Ipswich, USA) and NotI (cat. #R0189S, NEB, Ipswich, USA) and cloned into the pSUMO vector linearized with the identical enzymes.
(§3) The resin was poured into a chromatography column, washed with 50 ml buffer A (50 mmol·l^−1 TrisCl (pH 8.0), 800 mmol·l^−1 NaCl, 3 mmol·l^−1 β-mercaptol; 10% glycerol; 20 mmol·l^−1 imidazole) and 8-His-SUMO tagged STING proteins were eluted with 15 ml buffer A containing 300 mmol·l^−1 imidazole. […] Proteins were concentrated with Amicon® Ultra-15 10 K device (cat. #UFC901008, Merck Millipore, Billerica, USA) and flash frozen in liquid N2.
(§4) Differential Scanning Fluorimetry with WT STING and AQ STING
(§5) 20 μL solutions of the reaction mixtures were pipetted in triplicates into 96 well optical reaction plates and thermal denaturation of samples were performed on real time PCR cycler (LightCycler® 480 Instrument II—Roche, Basel, Switzerland). The first derivative of the thermal denaturation curves was performed to calculate denaturing temperatures of STING—CDN complexes and STING apoproteins. The thermal shift for each CDN was calculated by subtracting the average denaturing temperature of STING apoprotein from the average denaturing temperature of STING CDN complex.
Target sequence in this assay (Q86WV6 140-343 H232R): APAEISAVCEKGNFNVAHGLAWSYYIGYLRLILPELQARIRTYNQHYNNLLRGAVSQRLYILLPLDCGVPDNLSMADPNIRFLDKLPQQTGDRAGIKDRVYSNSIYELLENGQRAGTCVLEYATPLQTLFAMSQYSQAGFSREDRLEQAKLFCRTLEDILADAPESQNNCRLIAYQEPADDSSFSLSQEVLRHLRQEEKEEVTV

[3] = target: T2, AQ STING (G230A-R293Q) (Homo sapiens, UniProt Q86WV6, G230A/H232R/R293Q); assay: Differential Scanning Fluorimetry with AQ STING; type: binding; settings: thermal shift vs STING apoprotein, 150 μM CDN, 0.1 mg/ml truncated human AQ STING, SYPRO Orange; for ΔTm at 150 µM: read-out: DSF ΔTm (° C.) AQ STING
T2 construct: truncated human WT STING or AQ STING (amino acid residues 140-343); 8xHis (N, cleaved yes); SUMO (N, cleaved yes); made in house; host or cells: E. coli Rosetta-gami B (DE3)
T2 sequence (Q86WV6 140-343 G230A/H232R/R293Q): as the sequence (Q86WV6 140-343 H232R) above, with G91A, R154Q counted along it
Description: as §1, §2, §3, §4, §5

Molecule	EC50 [1] [nM]	DSF ΔTm (° C.) WT STING [2] [°C]	DSF ΔTm (° C.) AQ STING [3] [°C]	ΔTm at 150 µM [2] [°C]	ΔTm at 150 µM [3] [°C]
1R,6R,8R,9R,10R,15R,17R,18S)-8,17-bis(6-amino-9H-purin-9-yl)-9-fluoro-3,12,18-trihydroxy-2,4,7,11,14,16-hexaoxa-3λ^5,12λ^5-diphosphatricyclo[13.2.1.0^6,^10]octadecane-3,12-dione [Compound 34]	700	2.6	8.5	–	–
Nc1ncnc2c1ncn2[C@@H]1O[C@@H]2OCP(=O)(O)O[C@@H]3[C@H](O)[C@@H](OCP(=O)(O)O[C@H]2[C@H]1O)O[C@H]3n1cnc2c(N)ncnc21 [Compound 30, (1R,6R,8R,9R,10S,15R,17R,18S)-8,17-bis(6-amino-9H-purin-9-yl)-3,9,12,18-tetrahydroxy-2,5,7,11,14,16-hexaoxa-3λ^5,12λ^5-diphosphatricyclo[13.2.1.0^6,^10]octadecane-3,12-dione]	6700	–	–	0.8	6.4
Nc1ncnc2c1ncn2[C@@H]1O[C@@H]2COP(=O)(O)O[C@@H]3[C@H](O)[C@@H](COCP(=O)(O)O[C@H]2[C@H]1O)O[C@H]3n1cnc2c(N)ncnc21 [Compound 31]	12500	–	–	0.5	5.7
Nc1ncnc2c1ncn2[C@@H]1O[C@@H]2COCP(=O)(O)O[C@@H]3[C@H](O)[C@@H](COP(=O)(O)O[C@H]2[C@H]1O)O[C@H]3n1cnc2c(N)ncnc21 [Compound 32, (1R,6S,7R,8R,10R,16R,17R,19R)-8,17-bis(6-amino-9H-purin-9-yl)-4,7,14,19-tetrahydroxy-3,5,9,12,15,18-hexaoxa-4λ^5,14λ^5-diphosphatricyclo[14.2.1.0^6,^10]nonadecane-4,14-dione]	8000	–	–	0.5	5.3
Nc1ncnc2c1ncn2[C@@H]1O[C@@H]2OCP(=O)(O)O[C@@H]3[C@H](O)[C@@H](COP(=O)(O)O[C@H]2[C@H]1O)O[C@H]3n1cnc2c(=O)[nH]cnc21 [Compound 37, (1R,6R,8R,9R,10S,15R,17R,18R)-8-(6-amino-9H-purin-9-yl)-3,9,12,18-tetrahydroxy-17-(6-oxo-6,9-dihydro-1H-purin-9-yl)-2,5,7,11,13,16-hexaoxa-3λ^5,12λ^5 diphosphatricyclo[13.2.1.0^6,10]octadecane-3,12-dione]	50	–	–	8.5	16.5
Nc1nc2c(ncn2[C@@H]2O[C@@H]3COP(=O)(S)O[C@@H]4[C@@H](OCP(=O)(O)O[C@@H]2[C@@H]3O)O[C@@H](n2cnc3c(N)ncnc32)[C@@H]4O)c(=O)[nH]1 (stereo partly drawn) [Compound 39, (1R,6R,8R,9R,10S,15R,17R,18R)-17-(2-amino-6-oxo-6,9-dihydro-1H-purin-9-yl)-8-(6-amino-9H-purin-9-yl)-3,9,18-trihydroxy-12-sulfanyl-2,5,7,11,13,16-hexaoxa-3λ^5,12λ^5-diphosphatricyclo[13.2.1.0^6,10]octadecane-3,12-dione]	80	–	–	11	17.2

Next, values leading:

EC50 [1] [nM]	DSF ΔTm (° C.) WT STING [2] [°C]	DSF ΔTm (° C.) AQ STING [3] [°C]	ΔTm at 150 µM [2] [°C]	ΔTm at 150 µM [3] [°C]	Molecule
30	11.5	19.4	–	–	Nc1nc2c(ncn2[C@@H]2O[C@@H]3COP(=O)(O)O[C@@H]4[C@H](O)[C@@H](COP(=O)(O)O[C@@H]2[C@@H]3O)O[C@H]4n2cnc3c(N)ncnc32)c(=O)[nH]1 [2′2′-cGAMP, reference compound]
300	2.6	9.3	–	–	Nc1ncnc2c1ncn2[C@@H]1O[C@@H]2COP(=O)(O)O[C@H]3[C@@H](O)[C@H](n4cnc5c(N)ncnc54)O[C@@H]3COP(=O)(O)O[C@H]2[C@H]1O [3′3′c-di-AMP, reference compound]
5800	2.6	7.7	–	–	Nc1nc2c(ncn2[C@@H]2O[C@@H]3COP(=O)(O)O[C@H]4[C@@H](O)[C@H](n5cnc6c(=O)[nH]c(N)nc65)O[C@@H]4COP(=O)(O)O[C@H]3[C@H]2O)c(=O)[nH]1 [3′3′c-di-GMP, reference compound]
2600	–	–	1.6	8.3	Nc1ncnc2c1ncn2[C@@H]1O[C@@H]2COP(=O)(O)O[C@@H]3[C@H](O)[C@@H](COCP(=O)(O)O[C@H]2[C@H]1F)O[C@H]3n1cnc2c(N)ncnc21 [Compound 33, (1R,6R,8R,9R,10R,16R,18R,19R)-8,18-bis(6-amino-9H-purin-9-yl)-9-fluoro-3,12,19-trihydroxy-2,4,7,11,14,17-hexaoxa-3λ^5,12λ^5-diphosphatricyclo[14.2.1.0^6,^10]nonadecane-3,12-dione]
180	–	–	5.8	14.2	Nc1nc2c(ncn2[C@@H]2C[C@@H]3COP(=O)(O)O[C@@H]4[C@@H](OCP(=O)(O)O[C@@H]2[C@@H]3O)O[C@@H](n2cnc3c(N)ncnc32)[C@@H]4O)c(=O)[nH]1 [Compound 36, (1S,6R,8R,9R,10S,15R,17R,18R)-17-(2-amino-6-oxo-6,9-dihydro-1H-purin-9-yl)-8-(6-amino-9H-purin-9-yl)-3,9,12,18-tetrahydroxy-2,5,7,11,13-pentaoxa-3λ^5,12λ^5-diphosphatricyclo[13.2.1.0^6,10]octadecane-3,12-dione]
50	–	–	8.2	16.2	Nc1nc2c(ncn2[C@@H]2O[C@@H]3COP(=O)(O)O[C@@H]4[C@@H](OCP(=O)(O)O[C@@H]2C3)O[C@@H](n2cnc3c(N)ncnc32)[C@@H]4O)c(=O)[nH]1 [Compound 38, (1R,6R,8R,9R,10S,15S,17R)-17-(2-amino-6-oxo-6,9-dihydro-1H-purin-9-yl)-8-(6-amino-9H-purin-9-yl)-3,9,12-trihydroxy-2,5,7,11,13,16-hexaoxa-3λ^5,12λ^5-diphosphatricyclo[13.2.1.0^6,10]octadecane-3,12-dione]
